Laboratory results reported in patent US10208074B2, “Pyrazole compounds and method for making and using the compounds” (Rigel Pharmaceuticals, Inc., priority 2015, dated 2019).
Counter-ions that a name gives are not always drawn. Like-named read-outs stand apart in the source and are kept apart here.

Tests used:
[1] = tested on: IL-23p19; test: LPS induced IL23p19 in THP-1 cells (with IFNγ primed) assay; type: cell-based, Human; conditions: THP-1 cells, IFNγ primed, LPS 1 ug/mL, 18 hours, 10 pt, read-out: IL23-p19 ELISA, THP1-IFNy, LPS, 10 pt EC50
From the text: LPS Induced IL23p19 in THP-1 Cells (with IFNγ Primed) Assay
THP-1 Cells (ATCC, Cat#TIB-202), Dimethyl Sulfoxide (DMSO) (Sigma-Aldrich, Cat#D2650), RPMI 1640 (Cellgro, Cat#10-040-CM), Fetal Bovine Serum (Sigma, Cat#F4135), Albumin From Bovine Serum (BSA) (Sigma-Aldrich, Cat#A7906), LPS (Serotype K-235, Sigma, Product Number L 2143), IFNγ (Peprotech, Cat#300-02) Capture antibody: Human IL-23p19 ELISA (e-Bioscience, Cat. #14-7238-85), Detection antibody: Primary Mouse Biotinylated anti-human IL-12(p40/p70) (e-Bioscience, Cat. #13-7129-85), Secondary HRP-conjugated Streptavidin (R&D Systems, Cat#DY998), 1×PBST Washing Buffer (PBS-Tween tablet) (VWR International, Cat#80058-558), ELISA Blocking Buffer (PBS with 1% BSA), ELISA Dilution Buffer (PBS with 1% BSA), 384 Well Flat-Bottom, MaxiSorp Black Immuno Plates (Thermo Scientific, Cat#12-565-346), 384 Well Flat-Bottom, White Tissue Culture Plates (Thermo Scientific, Cat#12-565-343), Super Signal ELISA Pico Chemiluminescent Substrate (Thermo Scientific, Cat#37070), Cell Titer Glo reagent (Promega, Cat#G7573), Positive control, IKK2VI inhibitor (Calbiochem, Cat#401483), AquaMax 4000 plate washer (Molecular Devices), Luminometer, Wallac Victor2 1420 Multilabel Counter.
On day 1, 50K/well THP-1 cells were seeded and primed with IFNγ (50 ng/mL) in 384-well plates for about 18 hours in RPMI media with 10% FBS. On day 2, the compound was serially diluted in DMSO from 5 mM in 3-fold dilutions, and then diluted 1:125 in RPMI media with 10% FBS. 50 μL/well 2× compound was added to 50 μL/well THP-1 cells (with IFNγ primed) in duplicate in 384 well tissue culture plates. The cells were pre-incubated with compound for 1 hour at 37° C., 5% CO2 before addition of 10 μL/well 11×LPS to give a final concentration of 1 ug/mL LPS. Day 3, after stimulation for 18 hours at 37° C., 5% CO2, the assay plate was centrifuged and 70 μL/well supernatant was harvested. IL-23p19 protein in 70 μL/well of supernatant was measured by sandwich ELISA, and 25 μl/well Cell Titer Glo reagent was added to the remaining cells to measure compound toxicity.
Maxisorp immuno ELISA plates were pre-coated with 25 μL/well of anti-IL-23p19 capture antibody (2.5 ug/mL) in PBS overnight at room temperature. After washing with 1× PBST, the plates were blocked using 100 μL/well of 1% BSA in PBS for 2 hours at room temperature. The plates were washed three times with 1×PBST and 70 μL/well supernatant were added. The plates were incubated at room temperature for 2 hours with shaking and washed three times with 1×PBST. 25 μL/well of biotin labeled anti-IL-12(p40/p70) detection antibody (100 ng/mL) in PBS with 1% BSA was added and the plates were incubated at room temperature for 2 hours with shaking. After washing three times with 1×PBST, 25 μL/well of streptavidin-HRP (1:200) in PBS with 1% BSA was added and the plates were incubated at room temperature for 20 minutes with shaking. The plates were washed three times with 1× PBST and 25 μL/well of Super Signal ELISA Pico Chemiluminescent Substrate were added. The plates were read with a luminometer, and the chemiluminescence values were entered into Athena (Rigel) for curve fitting, EC50 calculation, and database storage.

[2] = tested on: IL-23 (p19/p40); test: IL23-p19 ELISA, Dendritic, LPS (compound screening using DC cells); type: cell-based, Human; conditions: PBMC-derived DC cells, IFNγ primed, LPS 1 μg/ml, 18 hours, 10 pt, read-out: IL23-p19 ELISA, Dendritic, LPS, 10 pt, EC50
Method: Compound Screening Using DC Cells
Human PBMC cells (400 million) obtained from the vendor were transferred into a T-175 flask containing 15 ml RPMI media (10% FBS) and incubate for 2 hours at 37° C. After 2 hours, the media including floating cells was aspirated out carefully and 12 ml of fresh RPMI media (10% FBS) containing GMCSF (100 ng/ml) and IL4 (20 ng/ml) was added, and the flask was kept in a 37° C. incubator for 7 days.
After 3 days, fresh GMCSF (100 ng/ml) and IL4 (20 ng/ml) were added to the flask and the incubation continued. After 7 days, the fully differentiated cells were harvested by spinning down (1200 rpm/5 min) and aspirating the media. The cells were suspended in fresh RPMI media (10% FBS) containing 50 ng/ml IFNγ (1000 U/ml) and then plated (50K/well in 100 μl) onto a white clear bottom 96 well plate and left in a 37° C. incubator for 24 hours.
After 24 hours incubation, 100 μl of RPMI media was added containing 2× concentrated test compound per well to the above cell-culture media (final concentration becomes 1×) and the plates were pre-incubated for 1 hour at 37° C. before stimulating with LPS.
After 1 hour compound pre-incubation, 10 piper well of 20× concentrated LPS solution in RPMI media was added to give a final concentration of 1 μg/ml. The mixture was shaken and incubated the plates at 37° C. for an additional 18 hours.
155 μl of the supernatant was harvested from each well carefully (without the tip touching the bottom of the well) and to the remaining 50 μl/well of the cell culture plate was added 50 μl of Cell Titer Glo reagent. The mixture was incubated for 1-2 minutes on a shaker and the plate was read for luminescence intensity to determine the compound cytotoxicity. The cell culture supernatant collected above was used to carry out IL23 ELISA (65 μl -Supernatant) and IL10 ELISA (90 μl—Supernatant) as described below.
Human IL-23 (p19/p40) ELISA Protocol (e-Biosciences)
To 10.5 ml PBS add 50 μl of anti-IL23 (p19) was added capture antibody (2.5 μg/ml). The mixture was mixed well and 100 μl of the coating solution was added to each well of the 96 well white plates from Pierce. The wells were covered and incubated overnight at 4° C.
The anti-IL23 (p19)-antibody-coated plates were washed 2× using TBST (use plate washer) and blocked using 200 μl of 0.5% Casein for 1.5-2 hours at room temperature with shaking.
The plates were washed 2× using TBST and the supernatant was transferred (65 μl/well) to the above pre-blocked/IL23(p19)-antibody-coated 96 well plate, and incubated at room temperature for 1.5 hours with shaking.
The plates were washed 4× using TBST (plate washer) and 100 μl/well detection antibody solution prepared from 2 μl of biotin labeled anti-IL-12 (p40/p70) antibody in 11 ml 1% BSA/PBS solution (1-5000 dilution) was added. The plates were incubated for 1 hour with shaking at Room temperature.
Again, the plates were washed 4× with TBST and 100 μl of HRP labeled Streptavidin (R&D Systems) solution (10 μl/10 ml 1% BSA solution) was added, and the plates were incubated at room temperature for another 45 minutes with shaking.
After 45 minutes, the plates were washed with TBST 4× and 100 ul/well Super Signal ELISA Pico Chemiluminescent Substrate from Pierce (3.5 ml A+3.5 ml B+3.5 ml MQ water) was added. The plates were shaken for 1-2 minutes then read on a plate reader.

Row | Compound | EC50 ([1]; Homo sapiens, THP-1, 18 h) [nM] | EC50 ([2]; Homo sapiens, 18 h) [nM] | other results
1 | COc1ccc(-c2nn(C)cc2NC(=O)c2csc(-c3cn[nH]c3)n2)nc1 [II-58, N-(3-(5-methoxypyridin-2-yl)-1-methyl-1H-pyrazol-4-yl)-2-(1H-pyrazol-4-yl)thiazole-4-carboxamide] | 130 | 112 | 
2 | CCO[C@H]1C[C@@H](n2cc(NC(=O)c3csc(-c4cnn(COP(=O)(O)O)c4)n3)c(-c3ccccn3)n2)C1 [II-83, (4-(4-((1-((1,3-cis)-3-ethoxycyclobutyl)-3-(pyridin-2-yl)-1H-pyrazol-4-yl)carbamoyl)thiazol-2-yl)-1H-pyrazol-1-yl)methyl dihydrogen phosphate] |  |  | EC50 [1]: 86.3 nM; EC50 [2]: 241 nM
3 | COCCn1cc(NC(=O)c2ccc(-c3c[nH]nc3C)o2)c(-c2ncccn2)n1 [Compound I-8, N-(1-(2-methoxyethyl)-3-(pyrimidin-2-yl)-1H-pyrazol-4-yl)-5-(3-methyl-1H-pyrazol-4-yl)furan-2-carboxamide] | 880 | 429 | 
4 | O=C(Nc1cn([C@H]2CC[C@@H](O)CC2)nc1-c1ccccn1)c1ccc(-c2cn[nH]c2)o1 [Compound I-124, N-(1-((1s,4s)-4-hydroxycyclohexyl)-3-(pyridin-2-yl)-1H-pyrazol-4-yl)-5-(1H-pyrazol-4-yl)furan-2-carboxamide formate] | 53.4 | 101 | 
5 | CC(C)O[C@H]1C[C@@H](n2cc(NC(=O)c3ccc(-c4cn[nH]c4)o3)c(-c3ccccn3)n2)C1 [Compound I-114, N-(1-((1s,3s)-3-isopropoxycyclobutyl)-3-(pyridin-2-yl)-1H-pyrazol-4-yl)-5-(1H-pyrazol-4-yl)furan-2-carboxamide] | 49.3 | 61.6 | 
6 | O=C(Nc1cn(C2CCOC2)nc1-c1nccs1)c1csc(-c2cn[nH]c2)n1 (stereo not drawn) [II-115, 2-(1H-pyrazol-4-yl)-N-(1-(tetrahydrofuran-3-yl)-3-(thiazol-2-yl)-1H-pyrazol-4-yl)thiazole-4-carboxamide] | 43.8 | 159 | 
7 | C[C@]1(O)C[C@H](n2cc(NC(=O)c3csc(-c4cn[nH]c4)n3)c(-c3ccccn3)n2)C1 [II-79, N-(1-((1r,3r)-3-hydroxy-3-methylcyclobutyl)-3-(pyridin-2-yl)-1H-pyrazol-4-yl)-2-(1H-pyrazol-4-yl)thiazole-4-carboxamide] | 75.8 | 15.2 | 
8 | CCO[C@H]1C[C@@H](n2cc(NC(=O)c3csc(-c4cnn(COP(=O)(O)O)c4)n3)c(-c3ccccn3)n2)C1 [II-80, (4-(4-((1-((1,3-cis)-3-ethoxycyclobutyl)-3-(pyridin-2-yl)-1H-pyrazol-4-yl)carbamoyl)thiazol-2-yl)-1H-pyrazol-1-yl)methyl phosphate bis-ammonium salt] |  |  | EC50 ([1]; phosphate bis-ammonium salt): 49.5 nM; EC50 ([2]; phosphate bis-ammonium salt): 247 nM
9 | CCO[C@@H]1C[C@H](n2cc(NC(=O)c3csc(-c4cn[nH]c4)n3)c(-c3ccccn3)n2)C1F (stereo partly drawn) [II-155, N-(1-((cis)-3-ethoxy-2-fluorocyclobutyl)-3-(pyridin-2-yl)-1H-pyrazol-4-yl)-2-(1H-pyrazol-4-yl)thiazole-4-carboxamide] | 399 | 61.2 | 
10 | CCO[C@@H]1CC[C@H](n2cc(NC(=O)c3ccc(-c4cn[nH]c4)o3)c(-c3ccccn3)n2)C1 [Compound I-132, N-(1-((1S,3R)-3-ethoxycyclopentyl)-3-(pyridin-2-yl)-1H-pyrazol-4-yl)-5-(1H-pyrazol-4-yl)furan-2-carboxamide formate] | 81.2 |  | EC50 ([2]; formate): 103 nM
11 | O=C(Nc1cn(C2CCOCC2)nc1-c1ccccn1)c1ccc(-c2cn[nH]c2)o1 [Compound I-23, 5-(1H-pyrazol-4-yl)-N-(3-(pyridin-2-yl)-1-(tetrahydro-2H-pyran-4-yl)-1H-pyrazol-4-yl)furan-2-carboxamide] | 21.7 | 37.2 | 
12 | CCO[C@H]1C[C@@H](n2cc(NC(=O)c3csc(-c4c[nH]nc4C)n3)c(-c3ccccn3)n2)C1 [II-92, N-(1-((1,3-cis)-3-ethoxycyclobutyl)-3-(pyridin-2-yl)-1H-pyrazol-4-yl)-2-(3-methyl-1H-pyrazol-4-yl)thiazole-4-carboxamide] |  | 258 | 
13 | Cn1cc(NC(=O)c2ccc(-c3cn[nH]c3)o2)c(-c2ccc(N3CCOCC3)cn2)n1 [Compound I-105, N-(1-methyl-3-(5-morpholinopyridin-2-yl)-1H-pyrazol-4-yl)-5-(1H-pyrazol-4-yl)furan-2-carboxamide] |  | 26.5 | 
